Assay [1] concerns the target T1, Histone-lysine N-methyltransferase NSD3 (Homo sapiens, UniProt Q9BZ95).
T1 sequence (Q9BZ95 whole entry): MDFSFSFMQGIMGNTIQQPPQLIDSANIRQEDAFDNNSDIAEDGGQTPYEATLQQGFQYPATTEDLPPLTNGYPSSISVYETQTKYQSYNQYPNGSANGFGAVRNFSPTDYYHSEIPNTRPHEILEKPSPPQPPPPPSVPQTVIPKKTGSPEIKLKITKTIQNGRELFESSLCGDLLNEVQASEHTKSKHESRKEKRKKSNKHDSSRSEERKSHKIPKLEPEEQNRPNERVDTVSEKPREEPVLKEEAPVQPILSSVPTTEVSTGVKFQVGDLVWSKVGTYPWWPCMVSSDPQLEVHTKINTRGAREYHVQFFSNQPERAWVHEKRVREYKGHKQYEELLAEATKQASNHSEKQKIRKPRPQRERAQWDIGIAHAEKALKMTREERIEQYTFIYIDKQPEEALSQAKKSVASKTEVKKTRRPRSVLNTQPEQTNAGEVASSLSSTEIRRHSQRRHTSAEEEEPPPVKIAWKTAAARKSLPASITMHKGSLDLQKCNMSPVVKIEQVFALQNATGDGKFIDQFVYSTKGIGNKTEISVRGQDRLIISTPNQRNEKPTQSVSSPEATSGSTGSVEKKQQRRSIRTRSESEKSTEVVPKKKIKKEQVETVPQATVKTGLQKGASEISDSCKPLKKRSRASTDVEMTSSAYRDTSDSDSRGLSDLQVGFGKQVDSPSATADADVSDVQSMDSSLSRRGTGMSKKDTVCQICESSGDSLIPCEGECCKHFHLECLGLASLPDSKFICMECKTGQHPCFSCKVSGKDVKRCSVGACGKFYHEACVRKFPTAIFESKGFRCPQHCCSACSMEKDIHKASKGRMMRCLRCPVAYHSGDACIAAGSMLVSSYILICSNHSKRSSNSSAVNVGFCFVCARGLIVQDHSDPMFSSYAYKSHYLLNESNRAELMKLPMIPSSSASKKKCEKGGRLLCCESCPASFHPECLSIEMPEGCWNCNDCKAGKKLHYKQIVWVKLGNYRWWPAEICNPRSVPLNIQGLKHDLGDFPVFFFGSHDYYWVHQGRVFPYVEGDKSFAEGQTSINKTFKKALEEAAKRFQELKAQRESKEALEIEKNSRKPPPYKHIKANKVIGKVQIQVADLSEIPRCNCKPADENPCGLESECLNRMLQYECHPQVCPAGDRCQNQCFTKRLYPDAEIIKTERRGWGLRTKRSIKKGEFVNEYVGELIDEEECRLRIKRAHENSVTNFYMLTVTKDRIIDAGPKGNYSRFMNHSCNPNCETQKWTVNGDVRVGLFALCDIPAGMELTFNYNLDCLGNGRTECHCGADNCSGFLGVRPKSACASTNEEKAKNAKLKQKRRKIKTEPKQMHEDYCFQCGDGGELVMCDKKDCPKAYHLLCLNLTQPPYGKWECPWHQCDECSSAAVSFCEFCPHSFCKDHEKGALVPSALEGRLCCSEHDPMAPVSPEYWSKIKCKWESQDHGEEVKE
The assay can be described thus: Inhibition of recombinant NSD3 (1021 to 1322 residues) (unknown origin) expressed in Escherichia coli Rossetta (DE3).

A short description of assay [2]: Inhibition of cell proliferation of rat RN 22 cells incubated for 6 days by Real-time Glow MT assay. Particulars: RN 22, 144 h; call rule not given here. The class given is functional, cell-based.
The target in assay [3] is T1, Histone-lysine N-methyltransferase NSD3. The assay can be described thus: Inhibition of recombinant NSD3 (1021 to 1322 residues) (unknown origin) expressed in Escherichia coli Rossetta (DE3) using H3K36me1 as substrate incubated for 20 mins in presence of SAM by HTRF assay. Background: Time-resolved FRET reads energy transfer from a long-lived donor to a nearby acceptor.

In assay [4] the target is T2, Histone-lysine N-methyltransferase NSD2 (Homo sapiens, UniProt O96028).
T2 sequence (O96028 whole entry): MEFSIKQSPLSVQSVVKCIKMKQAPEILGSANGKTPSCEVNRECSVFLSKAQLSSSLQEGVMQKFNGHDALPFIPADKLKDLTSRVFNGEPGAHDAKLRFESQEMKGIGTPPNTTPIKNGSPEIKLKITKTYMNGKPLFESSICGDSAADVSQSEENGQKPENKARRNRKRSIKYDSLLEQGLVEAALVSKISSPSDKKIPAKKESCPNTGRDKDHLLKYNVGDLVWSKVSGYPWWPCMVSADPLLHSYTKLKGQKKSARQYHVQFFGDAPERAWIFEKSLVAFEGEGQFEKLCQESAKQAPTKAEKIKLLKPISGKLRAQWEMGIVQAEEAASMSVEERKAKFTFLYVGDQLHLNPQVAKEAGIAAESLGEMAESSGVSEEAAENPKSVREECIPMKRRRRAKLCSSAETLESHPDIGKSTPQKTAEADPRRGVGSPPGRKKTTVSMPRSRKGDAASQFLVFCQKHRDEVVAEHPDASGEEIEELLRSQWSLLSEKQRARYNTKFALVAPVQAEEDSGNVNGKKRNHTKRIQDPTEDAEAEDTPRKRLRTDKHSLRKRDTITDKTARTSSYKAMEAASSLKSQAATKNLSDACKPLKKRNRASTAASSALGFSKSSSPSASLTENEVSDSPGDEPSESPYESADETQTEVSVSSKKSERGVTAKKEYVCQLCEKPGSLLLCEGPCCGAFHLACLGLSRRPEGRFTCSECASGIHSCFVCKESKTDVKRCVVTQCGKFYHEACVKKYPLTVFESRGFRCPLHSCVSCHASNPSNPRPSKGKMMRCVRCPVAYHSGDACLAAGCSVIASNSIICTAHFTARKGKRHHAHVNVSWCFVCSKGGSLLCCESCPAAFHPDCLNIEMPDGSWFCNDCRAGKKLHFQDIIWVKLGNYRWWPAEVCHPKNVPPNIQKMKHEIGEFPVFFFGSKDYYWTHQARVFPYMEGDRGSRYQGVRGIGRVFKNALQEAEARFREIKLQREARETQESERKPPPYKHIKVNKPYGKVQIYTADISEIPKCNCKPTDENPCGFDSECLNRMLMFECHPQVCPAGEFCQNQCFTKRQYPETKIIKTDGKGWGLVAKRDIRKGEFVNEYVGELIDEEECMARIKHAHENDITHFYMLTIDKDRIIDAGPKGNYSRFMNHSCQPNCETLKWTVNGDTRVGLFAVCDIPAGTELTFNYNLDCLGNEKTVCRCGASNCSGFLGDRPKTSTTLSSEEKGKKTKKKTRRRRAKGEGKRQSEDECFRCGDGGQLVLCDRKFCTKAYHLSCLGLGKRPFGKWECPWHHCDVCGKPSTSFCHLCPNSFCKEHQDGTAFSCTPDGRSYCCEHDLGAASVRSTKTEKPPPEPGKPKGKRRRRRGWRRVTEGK
Description: Inhibition of recombinant NSD2 (942 to 1240 residues) (unknown origin) expressed in Escherichia coli Rossetta (DE3) using H3K36me1 as substrate incubated for 20 mins in presence of SAM by HTRF assay.

Structures are written as SMILES.

Broadly, the IC50 is the concentration that inhibits the measured activity by half. As to `CC(C)Oc1ccc(OCCn2c(S)nc3c(N)ncnc32)cc1`, the IC50 in assay [1] is 13.8 µM.

With `Cc1ccc(OCCn2c(S)nc3c(N)ncnc32)cc1`, the IC50 in assay [1] stood at 14.3 µM.

On to `CCOc1ccc(OCCn2c(S)nc3c(N)ncnc32)cc1`, for which, in assay [1], the IC50 came to 32.2 µM.

For `Cc1cc(CN)cc(C)c1-c1ncn(C)c1-c1ccnc2cc(F)ccc12`, in assay [2], the IC50 turned out to be 13 µM.

As for `CC(=O)Nc1ccc(OCCn2cnc3c(N)ncnc32)cc1`, the IC50 result in assay [3] is on record as “Not Active”.

With `N#Cc1ccccc1OCCn1cnc2c(N)ncnc21`, in assay [3], the IC50 entry is on record as “Not Active”.

Consider `Nc1ccc(OCCn2cnc3c(N)ncnc32)cc1`, for which the IC50 result in assay [3] was “Not Active”.

In the case of `CSc1nc2c(N)ncnc2n1CCOc1ccc(C#N)cc1`, the IC50 result in assay [4] and in assay [3] was “Not Active” in each case.

Turning to `Nc1ncnc2c1ncn2CCOc1ccccc1Cl`, in assay [3], the IC50 result is “Not Active”.

On to `N#Cc1ccc(OCCn2c(Br)nc3c(N)ncnc32)cc1`, for which the IC50 result in assay [3] is given as “Not Active”.

Source of the values: ChEMBL document CHEMBL5512626, “Discovery of potent small molecule inhibitors of histone lysine methyltransferase NSDs” (Eur J Med Chem, 2024).
